Tested on: SARS-CoV-2
Experiment: microbe, parasite or virus in culture
Conditions: Severe acute respiratory syndrome coronavirus 2, Vero C1008, 48 h

COc1ccc(C(=O)CC(=O)c2ccc(C(C)(C)C)cc2)cc1 [AVOBENZONE]
IC50: > 20 µM | IC50 (read-out: pIC50 (converted)): > 20 µM

N#Cc1ccccc1-c1cc(-c2ccccn2)cn(-c2ccccc2)c1=O
IC50: > 20 µM | IC50 (read-out: pIC50 (converted)): > 20 µM

N[C@@H](C(=O)N[C@@H]1C(=O)N2C(C(=O)O)=C(Cl)CC[C@H]12)c1ccccc1 [LORACARBEF ANHYDROUS]
IC50: > 20 µM | IC50 (read-out: pIC50 (converted)): > 20 µM

COc1cc(C(=S)N2CCOCC2)cc(OC)c1OC [TRITIOZINE]
IC50: > 20 µM | IC50 (read-out: pIC50 (converted)): > 20 µM

N#CC(O[C@@H]1O[C@H](CO[C@@H]2O[C@H](CO)[C@@H](O)[C@H](O)[C@H]2O)[C@@H](O)[C@H](O)[C@H]1O)c1ccccc1 (stereo partly specified) [VITAMIN B17]
IC50: > 20 µM | IC50 (read-out: pIC50 (converted)): > 20 µM

O=C(O)C1N[C@H](C(=O)O)CS1 (stereo partly specified)
IC50: > 20 µM | IC50 (read-out: pIC50 (converted)): > 20 µM

CCCCNc1ccc(C(=O)OCCN(C)C)cc1 [TETRACAINE]
IC50: > 20 µM | IC50 (read-out: pIC50 (converted)): > 20 µM

CC(=O)Nc1ccc(CC(=O)O)cc1 [ACTARIT]
IC50: > 20 µM | IC50 (read-out: pIC50 (converted)): > 20 µM

OC(CCN1CCCCC1)(c1ccccc1)C1CCCC1 (stereo unspecified) [CYCRIMINE]
IC50: > 20 µM | IC50 (read-out: pIC50 (converted)): > 20 µM

Cc1cn2nc([C@H]3CCCCN3C(=O)c3cc(Cl)ccc3NS(C)(=O)=O)cc2nc1N1CC[C@H](N)C1
IC50: > 20 µM | IC50 (read-out: pIC50 (converted)): > 20 µM

CC(C)C[C@H](NC(=O)[C@H](CCc1ccccc1)NC(=O)CN1CCOCC1)C(=O)N[C@@H](Cc1ccccc1)C(=O)N[C@@H](CC(C)C)C(=O)[C@@]1(C)CO1 [CARFILZOMIB]
IC50: > 20 µM | IC50 (read-out: pIC50 (converted)): > 20 µM

NC1CCCCC1N (stereo unspecified)
IC50: > 20 µM | IC50 (read-out: pIC50 (converted)): > 20 µM

NC(=O)c1nc(F)cnc1O
IC50: > 50.1 µM | IC50 (read-out: pIC50 (converted)): > 50.1 µM

CCOC(=O)c1ccc(O)cc1 [ETHYLPARABEN]
IC50: > 20 µM | IC50 (read-out: pIC50 (converted)): > 20 µM

CO[C@H]1C[C@@H]2CC[C@@H](C)[C@@](O)(O2)C(=O)C(=O)N2CCCC[C@H]2C(=O)O[C@H]([C@H](C)C[C@@H]2CC[C@@H](OC(=O)C(C)(CO)CO)[C@H](OC)C2)CC(=O)[C@H](C)/C=C(\C)[C@@H](O)[C@@H](OC)C(=O)[C@H](C)C[C@H](C)/C=C/C=C/C=C/1C [TEMSIROLIMUS]
IC50: > 20 µM | IC50 (read-out: pIC50 (converted)): > 20 µM

CC1(C)O[C@@H]2C[C@H]3[C@@H]4C[C@H](F)C5=CC(=O)C=C[C@]5(C)[C@H]4[C@@H](O)C[C@]3(C)[C@]2(C(=O)CO)O1 [FLUNISOLIDE]
IC50: > 20 µM | IC50 (read-out: pIC50 (converted)): > 20 µM

COc1cc2c(Oc3ccc4[nH]c(C)cc4c3F)ncnc2cc1OCCCN1CCCC1 [CEDIRANIB]
IC50: > 20 µM | IC50 (read-out: pIC50 (converted)): > 20 µM

CC[C@]12CCCN3CCc4c(n(c5ccccc45)C(=O)C1)[C@@H]32 [VINBURNINE]
IC50: > 20 µM | IC50 (read-out: pIC50 (converted)): > 20 µM

Oc1ccc2c3c1O[C@H]1[C@@H](O)CC[C@@]4(O)[C@@H](C2)N(CC2CCC2)CC[C@]314 [NALBUPHINE]
IC50: > 50.1 µM | IC50 (read-out: pIC50 (converted)): > 50.1 µM

Cn1c(=O)c2nc[nH]c2n(C)c1=O [THEOPHYLLINE]
IC50: > 20 µM | IC50 (read-out: pIC50 (converted)): > 20 µM

CC#C[C@]1(O)CC[C@H]2[C@@H]3CCC4=CC(=O)CCC4=C3[C@@H](c3ccc(N(C)C)cc3)C[C@@]21C [MIFEPRISTONE]
IC50: > 25.1 µM | IC50 (read-out: pIC50 (converted)): > 25.1 µM

Cc1cc(/C=C/c2ccc3cc(N(C)C)ccc3[n+]2C)c(C)n1-c1ccccc1
IC50: > 20 µM | IC50 (read-out: pIC50 (converted)): > 20 µM

NCCCC(O)(P(=O)(O)O)P(=O)(O)O [ALENDRONIC ACID]
IC50: > 20 µM | IC50 (read-out: pIC50 (converted)): > 20 µM

COC(=O)N[C@H](C(=O)N1CC2(CC2)C[C@H]1c1nc(-c2ccc3c(c2)C(F)(F)c2cc(-c4ccc5[nH]c([C@@H]6[C@H]7CC[C@H](C7)N6C(=O)[C@@H](NC(=O)OC)C(C)C)nc5c4)ccc2-3)c[nH]1)C(C)C
IC50: > 20 µM | IC50 (read-out: pIC50 (converted)): > 20 µM

OC[C@H]1O[C@@](O)(CO)[C@@H](O)[C@@H]1O
IC50: > 20 µM | IC50 (read-out: pIC50 (converted)): > 20 µM

CC(=O)OC(C)C[N+](C)(C)C (stereo unspecified) [METHACHOLINE]
IC50: > 20 µM | IC50 (read-out: pIC50 (converted)): > 20 µM

CC[N@@+]1(C)[C@@H]2CC[C@H]1C[C@@H](OC(=O)[C@]1(c3ccccc3)CC[C@H](C(=O)O[C@H]3C[C@H]4CC[C@@H](C3)[N@+]4(C)CC)c3ccccc31)C2
IC50: > 20 µM | IC50 (read-out: pIC50 (converted)): > 20 µM

[NH-]c1c[n+](N2CCOCC2)no1 [LINSIDOMINE]
IC50: > 20 µM | IC50 (read-out: pIC50 (converted)): > 20 µM

CO[C@H]1C(O)C[C@H](O[C@H]2C(O)C[C@H](O[C@H]3C(O)C[C@H](OC4CC[C@@]5(C)C(CCC6C5CC(O)[C@]5(C)[C@@H](C7=CC(=O)OC7)CCC65O)C4)OC3C)OC2C)OC1C (stereo partly specified)
IC50: > 20 µM | IC50 (read-out: pIC50 (converted)): > 20 µM

COc1cc([C@@H]2c3cc4c(cc3[C@H](O)[C@H]3COC(=O)[C@H]23)OCO4)cc(OC)c1OC [PODOFILOX]
IC50: > 20 µM | IC50 (read-out: pIC50 (converted)): > 20 µM

Nc1nc(N)c2nc(CNc3ccc(C(=O)N[C@@H](CCC(=O)O)C(=O)O)cc3)cnc2n1 [AMINOPTERIN]
IC50: > 20 µM | IC50 (read-out: pIC50 (converted)): > 20 µM

O=C(O)c1ccccc1Nc1cccc(C(F)(F)F)c1 [FLUFENAMIC ACID]
IC50: > 20 µM | IC50 (read-out: pIC50 (converted)): > 20 µM

Nc1ncnc2c([C@@H]3N[C@H](CO)[C@@H](O)[C@H]3O)c[nH]c12
IC50: > 100 µM | IC50 (read-out: pIC50 (converted)): > 100 µM

O=C(O)c1cc(O)c2cccc(O)c2n1 [XANTHURENATE]
IC50: > 20 µM | IC50 (read-out: pIC50 (converted)): > 20 µM

CC(N)C(=O)OC(C)(C)Cc1ccc(Cl)cc1 (stereo unspecified) [ALAPROCLATE]
IC50: > 20 µM | IC50 (read-out: pIC50 (converted)): > 20 µM

CCC1=C(C)CN(C(=O)NCCc2ccc(S(=O)(=O)NC(=O)N[C@H]3CC[C@H](C)CC3)cc2)C1=O [GLIMEPIRIDE]
IC50: > 20 µM | IC50 (read-out: pIC50 (converted)): > 20 µM

Oc1cc(O)c2c(c1)O[C@H](c1ccc(O)c(O)c1)[C@@H](O)C2 [CIANIDANOL]
IC50: > 20 µM | IC50 (read-out: pIC50 (converted)): > 20 µM

CO[C@@H]1[C@@H](OC(N)=O)[C@@H](O)[C@H](Oc2ccc3c(O)c(NC(=O)c4ccc(O)c(CC=C(C)C)c4)c(=O)oc3c2C)OC1(C)C [NOVOBIOCIN]
IC50: > 20 µM | IC50 (read-out: pIC50 (converted)): > 20 µM

O=C(CC1NCCCC1O)Cn1cnc2cc(Br)c(Cl)cc2c1=O (stereo unspecified) [HALOFUGINONE]
IC50: > 20 µM | IC50 (read-out: pIC50 (converted)): > 20 µM

CC(=O)Nc1c(I)c(C(=O)N[C@H]2C(O)O[C@H](CO)[C@@H](O)[C@@H]2O)c(I)c(N(C)C(C)=O)c1I (stereo partly specified) [METRIZAMIDE]
IC50: > 20 µM | IC50 (read-out: pIC50 (converted)): > 20 µM

CCOC(=O)C1=C[C@]2(CC)CCCN3CCc4c(n1c1ccccc41)[C@@H]32 [VINPOCETINE]
IC50: > 20 µM | IC50 (read-out: pIC50 (converted)): > 20 µM

C=CCOC(Cn1ccnc1)c1ccc(Cl)cc1Cl (stereo unspecified) [ENILCONAZOLE]
IC50: > 20 µM | IC50 (read-out: pIC50 (converted)): > 20 µM

CC(=O)Oc1cc(C(F)(F)F)ccc1C(=O)O [TRIFLUSAL]
IC50: > 20 µM | IC50 (read-out: pIC50 (converted)): > 20 µM

C=CC(=O)N[C@@H]1CN(c2nc(Nc3cn(C)nc3OC)c3ncn(C)c3n2)C[C@H]1F [MAVELERTINIB]
IC50: > 20 µM | IC50 (read-out: pIC50 (converted)): > 20 µM

COCCNCc1ccc(-c2cc3nccc(Oc4ccc(NC(=S)NC(=O)Cc5ccc(F)cc5)cc4F)c3s2)nc1 [GLESATINIB]
IC50: > 20 µM | IC50 (read-out: pIC50 (converted)): > 20 µM

CC(=O)c1ccc2c(c1)C(=O)C1(CC1)O2 [SPIZOFURONE]
IC50: > 20 µM | IC50 (read-out: pIC50 (converted)): > 20 µM

C=C1CC[C@@]2(O)[C@H]3Cc4ccc(O)c5c4[C@@]2(CCN3CC2CC2)[C@H]1O5
IC50: > 20 µM | IC50 (read-out: pIC50 (converted)): > 20 µM

O=C(NCc1ccccc1)OCCO [BURAMATE]
IC50: > 20 µM | IC50 (read-out: pIC50 (converted)): > 20 µM

Source: ChEMBL document CHEMBL4651402, “Screening of ~5500 FDA-approved drugs and clinical candidates for anti-SARS-CoV-2 activity” (2021)
